From ChEMBL document CHEMBL1201862, “PubChem BioAssay data set” (2004)
Calls of active or inactive are those of the source.

Tests used:
[1] = cytotoxicity toward NIH3T3 fibroblasts, dose response, counter-screen, cell-based, ATP luminescence, mouse fibroblasts (AID 2010); assay type: functional;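 further: cells exposed to compound for about 90 hours before reading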
[2] = inhibitors of intracellular T. cruzi replication, confirmation, NIH3T3 host cells, beta-gal luminescence (AID 2044); assay type: functional, cell-based;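 further: intracellular parasites grown in NIH/3T3 mouse fibroblasts as host cells; luminescent beta-galactosidase reporter signal from transgenic T. cruzi replicating inside host cells; inhibitors lower the luminescence signal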
[3] = biological target: T1, Microphthalmia-associated transcription factor (Homo sapiens, UniProt O75030); assay: TRPM1 promoter luciferase signal decrease, dose response, MITF inhibitor project, cell-based, SK-MEL-5, cherry-picked, set 3 (AID 493073); assay type: functional
T1 sequence (O75030 whole entry): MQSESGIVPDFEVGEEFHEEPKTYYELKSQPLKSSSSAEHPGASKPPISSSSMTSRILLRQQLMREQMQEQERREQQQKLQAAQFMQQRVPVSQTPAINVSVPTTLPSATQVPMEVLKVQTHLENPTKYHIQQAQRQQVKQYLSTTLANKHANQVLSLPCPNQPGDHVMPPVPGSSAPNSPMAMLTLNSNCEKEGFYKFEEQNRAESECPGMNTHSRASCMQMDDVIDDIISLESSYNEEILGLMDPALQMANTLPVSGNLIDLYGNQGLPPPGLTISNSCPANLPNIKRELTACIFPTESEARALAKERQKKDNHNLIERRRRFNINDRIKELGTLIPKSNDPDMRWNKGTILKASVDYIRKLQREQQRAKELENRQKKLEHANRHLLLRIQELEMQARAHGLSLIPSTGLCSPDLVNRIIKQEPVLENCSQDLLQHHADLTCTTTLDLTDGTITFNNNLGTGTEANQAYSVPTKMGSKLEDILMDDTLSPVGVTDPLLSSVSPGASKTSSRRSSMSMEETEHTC

[4] = biological target: T2, DNA repair protein RAD52 homolog (Homo sapiens, UniProt P43351); assay type: functional, biochemical
T2 sequence (P43351 whole entry): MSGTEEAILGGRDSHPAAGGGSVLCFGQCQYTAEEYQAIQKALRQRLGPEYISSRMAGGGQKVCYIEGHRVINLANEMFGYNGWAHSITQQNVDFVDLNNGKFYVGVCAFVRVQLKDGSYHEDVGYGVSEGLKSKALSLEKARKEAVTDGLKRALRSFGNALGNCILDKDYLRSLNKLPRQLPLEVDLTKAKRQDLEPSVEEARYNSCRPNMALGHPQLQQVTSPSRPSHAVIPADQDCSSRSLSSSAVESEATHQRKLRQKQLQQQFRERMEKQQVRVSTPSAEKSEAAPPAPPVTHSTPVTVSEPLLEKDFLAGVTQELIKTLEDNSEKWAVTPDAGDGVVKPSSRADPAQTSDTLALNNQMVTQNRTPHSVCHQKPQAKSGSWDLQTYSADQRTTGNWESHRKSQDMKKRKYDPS

[5] = biological target: ATP-dependent molecular chaperone HSP82 (Candida albicans (strain WO-1) (Yeast), UniProt C4YTQ8); assay: loss of DOC-induced GRE-beta-galactosidase reporter signal, dose response, Hsp90 inhibitor project, S. cerevisiae, luminescence (AID 2400); assay type: functional, cell-based;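 further: beta-galactosidase luminescence from glucocorticoid response element reporter as proxy for Hsp90 function; inhibitor potency where signal loss means Hsp90 inhibition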
Chain of ATP-dependent molecular chaperone HSP82 (C4YTQ8 whole entry): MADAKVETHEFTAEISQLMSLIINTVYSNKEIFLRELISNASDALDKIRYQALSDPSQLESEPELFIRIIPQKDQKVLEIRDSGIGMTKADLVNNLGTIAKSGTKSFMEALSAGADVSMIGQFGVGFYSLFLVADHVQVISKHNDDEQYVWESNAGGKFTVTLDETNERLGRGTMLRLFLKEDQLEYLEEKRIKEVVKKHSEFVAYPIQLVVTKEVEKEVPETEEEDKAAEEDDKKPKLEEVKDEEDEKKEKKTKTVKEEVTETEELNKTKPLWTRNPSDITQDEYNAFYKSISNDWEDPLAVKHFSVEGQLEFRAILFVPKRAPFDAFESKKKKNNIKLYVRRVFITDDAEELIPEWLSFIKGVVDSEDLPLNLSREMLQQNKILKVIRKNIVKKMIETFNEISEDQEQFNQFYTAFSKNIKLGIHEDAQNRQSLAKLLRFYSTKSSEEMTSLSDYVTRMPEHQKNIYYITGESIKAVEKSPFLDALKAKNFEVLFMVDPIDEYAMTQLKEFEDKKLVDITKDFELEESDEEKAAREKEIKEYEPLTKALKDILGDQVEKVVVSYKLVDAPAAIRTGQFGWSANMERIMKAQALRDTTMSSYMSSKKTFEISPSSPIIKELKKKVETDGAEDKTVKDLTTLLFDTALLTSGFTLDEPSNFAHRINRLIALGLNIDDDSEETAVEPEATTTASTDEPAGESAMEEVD

[6] = test system: INS1; assay: beta cell apoptosis inhibitors, cytokine rescue, dose response, luminescence, retest (AID 449756); assay type: functional, cell-based; details: Rattus norvegicus;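 further: cell death triggered by IL-1 beta plus TNF-alpha plus IFN-gamma mixture; protective hits raise ATP signal compared with cytokine alone wells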
[7] = biological target: T3, COUP transcription factor 2 (Homo sapiens, UniProt P24468); assay: Luminescence-based cell-based high throughput dose response assay to identify inhibitors of COUP-TFII (NR2F2).; assay type: functional;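 further: HEK293 cells transiently cotransfected with COUP-TFII expression vector and reporter; luciferase reporter luminescence driven by COUP-TFII from the pX2-168 reporter plasmid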
T3 sequence (P24468 whole entry): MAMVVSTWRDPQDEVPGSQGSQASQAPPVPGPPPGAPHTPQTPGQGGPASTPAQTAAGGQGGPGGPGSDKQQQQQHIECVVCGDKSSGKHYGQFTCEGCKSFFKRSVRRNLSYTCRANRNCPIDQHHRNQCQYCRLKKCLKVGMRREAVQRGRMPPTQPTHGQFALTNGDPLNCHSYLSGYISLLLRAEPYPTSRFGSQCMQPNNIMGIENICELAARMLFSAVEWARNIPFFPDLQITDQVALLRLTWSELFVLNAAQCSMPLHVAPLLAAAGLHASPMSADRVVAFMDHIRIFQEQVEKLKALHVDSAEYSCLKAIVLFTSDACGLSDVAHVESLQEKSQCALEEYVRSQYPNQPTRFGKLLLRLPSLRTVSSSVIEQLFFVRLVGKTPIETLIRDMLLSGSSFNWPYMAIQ

[8] = cytotoxicity in HEK-293T cells, dose response, cytotoxicity control for TCR NF-kB inhibitor project, luminescence, T-cell screen hits (AID 489026); assay type: functional, cell-based;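 further: cells exposed to compound about 14 hours before the viability readout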
[9] = NIH-3T3 fibroblast cytotoxicity, dose response, cytotoxicity control, cell-based, fluorescence, Alamar Blue, secondary assay (AID 2327); assay type: functional;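 further: NIH-3T3 mouse fibroblasts cultured with fluconazole at 8 µg/mL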
[10] = biological target: T4, Nucleotide-binding oligomerization domain-containing protein 1 (Homo sapiens, UniProt Q9Y239); assay: NOD1 signaling inhibitors, SAR follow-up, revised (AID 2333); assay type: functional
T4 sequence (Q9Y239 whole entry): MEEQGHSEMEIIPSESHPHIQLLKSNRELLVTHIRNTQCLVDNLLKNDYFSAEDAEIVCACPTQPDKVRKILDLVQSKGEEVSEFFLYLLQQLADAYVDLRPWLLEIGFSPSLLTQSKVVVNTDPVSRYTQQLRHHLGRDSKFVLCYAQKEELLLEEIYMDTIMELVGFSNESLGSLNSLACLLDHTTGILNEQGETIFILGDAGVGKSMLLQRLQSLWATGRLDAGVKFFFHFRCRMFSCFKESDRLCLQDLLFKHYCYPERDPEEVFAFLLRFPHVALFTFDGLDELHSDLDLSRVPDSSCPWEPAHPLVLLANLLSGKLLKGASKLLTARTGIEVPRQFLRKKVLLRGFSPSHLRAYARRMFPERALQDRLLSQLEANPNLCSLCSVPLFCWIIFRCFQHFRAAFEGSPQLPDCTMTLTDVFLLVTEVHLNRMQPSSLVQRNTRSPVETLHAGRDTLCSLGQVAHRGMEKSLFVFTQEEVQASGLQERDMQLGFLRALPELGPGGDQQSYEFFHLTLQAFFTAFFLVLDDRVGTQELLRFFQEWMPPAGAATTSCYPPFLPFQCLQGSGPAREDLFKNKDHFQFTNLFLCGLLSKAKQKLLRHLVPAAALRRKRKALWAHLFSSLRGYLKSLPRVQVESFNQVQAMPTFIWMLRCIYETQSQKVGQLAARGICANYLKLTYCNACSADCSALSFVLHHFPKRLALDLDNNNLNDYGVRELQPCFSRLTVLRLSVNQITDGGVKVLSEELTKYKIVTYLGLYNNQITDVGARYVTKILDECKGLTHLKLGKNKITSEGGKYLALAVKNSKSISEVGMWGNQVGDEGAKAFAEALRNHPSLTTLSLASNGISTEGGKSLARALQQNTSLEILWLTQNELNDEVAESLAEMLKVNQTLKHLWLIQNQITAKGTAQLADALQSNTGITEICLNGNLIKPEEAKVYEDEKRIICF

[11] = biological target: T5, Serine/threonine-protein phosphatase (Candida dubliniensis (strain CD36 / CBS 7987 / NCPF 3949 / NRRLY-17841) (Yeast), UniProt B9W6M3); assay: calcineurin pathway inhibitors in yeast reporter, dose response, S. cerevisiae, CDRE-lacZ, luminescence, secondary (AID 2388); assay type: functional, cell-based;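 further: yeast reporter cells carrying a calcineurin-responsive lacZ construct stimulated with calcium chloride; luminescent beta-galactosidase reporter signal in whole cells rather than isolated phosphatase activity; potency for inhibition where a drop in reporter signal means calcineurin blockade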
T5 sequence (B9W6M3 whole entry): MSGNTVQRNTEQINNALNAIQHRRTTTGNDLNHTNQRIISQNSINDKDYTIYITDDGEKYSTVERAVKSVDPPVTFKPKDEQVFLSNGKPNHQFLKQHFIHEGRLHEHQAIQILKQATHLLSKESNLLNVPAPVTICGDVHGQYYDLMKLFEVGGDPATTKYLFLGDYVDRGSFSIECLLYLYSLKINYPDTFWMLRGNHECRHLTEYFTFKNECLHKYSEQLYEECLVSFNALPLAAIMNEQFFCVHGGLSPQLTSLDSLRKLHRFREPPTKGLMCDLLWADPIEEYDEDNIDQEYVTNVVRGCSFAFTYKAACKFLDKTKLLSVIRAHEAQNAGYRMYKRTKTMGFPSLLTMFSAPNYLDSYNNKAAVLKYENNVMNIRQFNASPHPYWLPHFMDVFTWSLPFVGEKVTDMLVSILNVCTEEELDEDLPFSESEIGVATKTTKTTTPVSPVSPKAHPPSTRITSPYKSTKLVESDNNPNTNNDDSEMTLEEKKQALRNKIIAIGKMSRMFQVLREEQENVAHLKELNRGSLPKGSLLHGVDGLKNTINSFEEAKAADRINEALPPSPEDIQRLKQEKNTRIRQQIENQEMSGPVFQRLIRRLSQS

[12] = test system: HEK293; assay: cells; details: Homo sapiens;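 further: cells exposed to compound for 14 hours overnight before viability readout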
[13] = C. albicans growth with fluconazole, confirmation, fluorescence, retest (AID 2467); assay type: functional, cell-based
[14] = biological target: Tumor necrosis factor (Homo sapiens, UniProt P01375); assay: TNFa-triggered NF-kB activation inhibitors, SAR follow-up, cell-based, revised (AID 2337); assay type: functional
Chain of Tumor necrosis factor (P01375 whole entry): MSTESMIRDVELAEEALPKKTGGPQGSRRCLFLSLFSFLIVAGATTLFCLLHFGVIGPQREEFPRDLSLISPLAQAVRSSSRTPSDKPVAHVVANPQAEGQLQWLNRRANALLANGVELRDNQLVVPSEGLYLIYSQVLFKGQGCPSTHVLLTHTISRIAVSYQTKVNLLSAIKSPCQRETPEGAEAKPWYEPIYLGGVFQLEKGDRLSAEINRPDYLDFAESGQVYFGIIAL

[15] = biological target: T6, Corticotropin-releasing factor receptor 2/Corticotropin-releasing factor-binding protein (Homo sapiens, UniProt P24387+Q13324); assay: activators of CRF receptor 2 with binding protein – uHTS hits, confirmation (AID 602473); assay type: functional; details: read-out: EC50_Mean
T6 sequence (Q13324 whole entry): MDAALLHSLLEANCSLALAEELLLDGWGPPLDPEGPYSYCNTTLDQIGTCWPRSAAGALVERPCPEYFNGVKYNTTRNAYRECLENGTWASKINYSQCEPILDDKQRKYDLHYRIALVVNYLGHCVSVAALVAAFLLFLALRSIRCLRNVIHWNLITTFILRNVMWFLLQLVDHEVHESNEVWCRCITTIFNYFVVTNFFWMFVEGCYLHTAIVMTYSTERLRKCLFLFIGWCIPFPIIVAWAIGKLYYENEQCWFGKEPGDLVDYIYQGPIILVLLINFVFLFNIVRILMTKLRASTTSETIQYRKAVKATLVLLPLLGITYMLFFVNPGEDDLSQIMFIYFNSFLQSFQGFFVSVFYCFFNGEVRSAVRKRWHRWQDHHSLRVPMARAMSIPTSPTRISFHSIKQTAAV
T6 sequence (P24387 whole entry): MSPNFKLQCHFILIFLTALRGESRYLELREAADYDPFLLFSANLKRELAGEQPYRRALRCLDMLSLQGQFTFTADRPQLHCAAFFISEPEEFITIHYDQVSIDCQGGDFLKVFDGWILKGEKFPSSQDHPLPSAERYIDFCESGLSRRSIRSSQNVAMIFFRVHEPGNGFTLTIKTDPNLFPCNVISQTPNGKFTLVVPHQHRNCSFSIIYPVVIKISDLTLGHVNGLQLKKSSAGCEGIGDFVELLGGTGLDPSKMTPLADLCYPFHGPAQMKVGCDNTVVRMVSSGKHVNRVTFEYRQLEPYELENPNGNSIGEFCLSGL

[16] = biological target: T7, Galanin receptor type 3 (Homo sapiens, UniProt O60755); assay: Fluorescence-based cell-based primary high throughput dose response assay to identify antagonists of the Galanin Receptor 3 (GalR3).; assay type: functional
T7 sequence (O60755 whole entry): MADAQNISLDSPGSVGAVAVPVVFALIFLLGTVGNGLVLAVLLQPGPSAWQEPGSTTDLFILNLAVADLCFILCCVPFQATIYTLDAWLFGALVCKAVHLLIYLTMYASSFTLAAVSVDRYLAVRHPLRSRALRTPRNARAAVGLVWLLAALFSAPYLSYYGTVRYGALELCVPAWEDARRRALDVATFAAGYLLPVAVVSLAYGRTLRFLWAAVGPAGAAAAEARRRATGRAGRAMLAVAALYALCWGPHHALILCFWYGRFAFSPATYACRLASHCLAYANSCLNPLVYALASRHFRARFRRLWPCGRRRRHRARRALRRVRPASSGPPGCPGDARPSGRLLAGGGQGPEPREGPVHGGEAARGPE

[17] = biological target: Troponin, cardiac muscle (Homo sapiens, UniProt P19429+P45379+P63316); assay: Fluorescence-based biochemical high throughput dose response assay for activators of the calcium sensitivity of cardiac Regulated Thin Filaments (RTF). [Related pubchem assays (depositor defined):AID493008, AID493018, AID504382, AID504383]; assay type: protein-complex assay
[18] = cells; assay type: functional, cell-based; details: HEK-CNG
[19] = A cytotoxicity screen of small molecule inhibitors of the PhoP region in Salmonella typhi identified in the primary screen. [Related pubchem assays: 1850, 1864, 1985 ]; assay type: functional

Cc1cc(C)c2nc3nc(C)cc(C)c3c(N)c2c1
EC50 [1]: > 60 µM (not active)
EC50 [2]: 1.5 µM (active)
AC50 [3]: 5.72 µM (active)
AC50 [4]: 1.12 µM (active)

CCc1cc(C(=O)NC2CCCc3c2cnn3-c2cccc(C)c2C)n(C)n1 (stereo not given)
EC50 [5]: > 150 µM (inactive)
AC50 [6]: < 0.195 µM (active)
IC50 [7]: > 0.117 µM (active)
IC50 [8]: > 80 µM (inactive)
EC50 [9]: > 150 µM (inactive)
IC50 [10]: 0.0983 µM (active)
EC50 [11]: > 180 µM (inactive)
IC50 [12]: > 20 µM (inactive)
EC50 [13]: 0.142 µM (active)
IC50 [14]: 0.179 µM (active)

Cc1cc(NC(=O)COC(=O)C(Cc2ccccc2)NC(=O)c2ccco2)no1 (stereo not given)
EC50 [15]: 4.49 µM (active)
IC50 [16]: > 29.9 µM (inactive)
EC50 [17]: > 71.5 µM (inactive)
EC50 [18]: > 29.9 µM (inactive)

O=C(Cn1cc(/C=C\[N+](=O)[O-])c2ccccc21)Nc1ccccc1
EC50 [19]: > 50 µM (active)
AC50 [3]: 7.45 µM (active)
